The text below walks through data of paper PMC5622107, “Small molecule inhibition of cGAS reduces interferon expression in primary macrophages from autoimmune mice” (Nature Communications, 2017).

The target of one data set is T1, mouse cGAS (Mus musculus, UniProt Q8C6L5).
T1 construct: recombinant full-length mouse cGAS in reaction buffer; His6-SUMO (N, cleaved yes); made in house; host or cells: E. coli BL21(DE3) RIL
Briefly: RapidFire mass spectrometry (RF-MS) cGAS enzymatic assay, cGAMP product formation. The data set is classed as biochemical. To be noted: for IC50: read-out: IC50; for inhibition at 12.5 µM: compound 12.5 µM, read-out: % inhibition at 12.5 µM. The protocol:
The liquid was collected at the well bottom using centrifugation for 30 s at 180×g. […] Plates were centrifuged for 30 s at 180×g to collect all liquid at the bottom of the wells. […] The reaction was stopped by addition of 65 µl of 0.5% (v/v) formic acid per well. The plates were centrifuged for 30 s at 180×g and sealed with a Velocity11 PlateLoc thermal plate sealer.
The solvent used for loading/washing process was an aqueous solution of 5 mM ammonium acetate, pH 10. […] Each sample of approximately 35 µl were aspirated from a 384-well plate and separated using a Graphitic carbon Type D cartridge. After each sample was loaded onto the cartridge it was washed for 4 s at 1.5 ml min^−1 using the aqueous solvent. ATP, GTP and cGAMP were eluted for 5 s using the organic solvent at a flow rate of 1.5 ml min^−1. The cartridge was then re-equilibrated with the aqueous solvent for 5 s at a flow rate of 1.5 ml min^−1. All samples were analyzed using a negative ionization mode in the mass spectrometer, with a gas temperature of 350 °C, nebulizer pressure of 35 psig, gas flow rate of 15 l min^−1. […] The Agilent RapidFire Integrator software was used to calculate the area under the curve (AUC) of the extracted ion counts for each analyte. Data points represent values of product formation. Catalytic rates expressed as percent product formation were calculated using the AUC of cGAMP and using the AUC’s of ATP and GTP to normalize for variations in the capacity of the solid phase extraction column during a screening run, as shown in the following formula: product formation (%) = [(AUCcGAMP × 100)/(AUCcGAMP + ½ AUCATP + ½ AUCGTP)].
To determine the percent inhibition of mouse cGAS the data was normalized against the positive control (column 24) and negative control (column 23). […] The quality of the screen was assessed by Z′ factor[57] calculated as follows: Z′ = 1−[3∗(standard deviation positive control + standard deviation negative control)/(average positive control—average negative control)].

A further data set has as its system IFNB1-Luc activity. Description: Interferon induction cellular assay (IFNB1-Luc) of the original manuscript version, reported in the point-by-point response. The data set is classed as cell-based. To be noted: original Fig. 5a, compared with vehicle.
The subject of another data set is 45-bp dsDNA. Description: DNA intercalation: acridine orange displacement from dsDNA by fluorescence polarization. It counts as binding. To be noted: Supplementary Table 2; for % intercalation at 30 µM: acridine orange displacement compared to mitoxantrone; for Polarization: compound 30 µM. The protocol: Ten microliters of HEN buffer (10 mM HEPES pH 7.5, 1 mM EDTA pH 7.5, 100 mM NaCl) were dispensed per well using a Thermo Multidrop Combi dispenser (Thermo Scientific). The liquid was collected at the well bottom using centrifugation for 30 s at 180×g. […] The final concentration of compounds in the assay was 30 µM. […] The liquid was collected at the well bottom using centrifugation for 30 s at 180×g. […] The liquid was collected at the well bottom using centrifugation for 30 s at 180 × g and the plates were incubated for 30 min. Mitoxantrone, a known DNA intercalator was used at 50 µM as a positive control, while DMSO alone was used as negative control. FP was measured using a Biotek Synergy Neo plate reader. […] All FP values are expressed in millipolarization (mP) units. The mP values were calculated using the equation mP = 1000 × [(I S−I SB)−(I P−I PB)]/[I S—I SB) + (I P−I PB)], where I S and […] to the parallel and perpendicular emission intensity, respectively, and I SB and I SP corresponds to parallel emission intensity perpendicular emission intensity of the buffer, respectively. The experimental G-factor, defined as G = I S/I P, was set to 1.0 in all experiments.
For orientation: In fluorescence polarisation assays a small probe gives low polarisation when free and higher when bound to something large.

The test system of data set [1] is cGAS activity in dsDNA-stimulated RAW macrophages. Briefly: Cellular luciferase assay, interferon-responsive reporter in dsDNA-stimulated RAW macrophages. It counts as cell-based. To be noted: Mus musculus, Macrophage, dsDNA-activated RAW cells. The protocol: (§1) The sequence and annealing conditions of the dsDNA used is described above. Typically, 0.4 µg or 0.6 µg of dsDNA was used to stimulate RAW-Lucia ISG-KO-TREX1/ISG-KO-cGAS or RAW-Lucia ISG cells, respectively, which equated to 90% of maximal luciferase activity observed. dsDNA stimulation of RAW macrophages and subsequent luciferase measurements were performed with or without the addition of small molecules at indicated concentrations in each figure, or with DMSO as vehicle control. For the dose curve experiments, serial dilutions of inhibitors were applied to 6.7 × 10^5 cells, plated in 24-well dishes, and co-stimulated with 0.4 µg of dsDNA. In subsequent experiments using inhibitors in RAW cells, the small molecules were used at concentrations representing the derived EC75 values, while co-stimulated with one of the following: 0.4 µg dsDNA, 50 nM 5′ppp-HP20 hairpin RNA (a kind gift from Dr Anna Pyle, Yale University; sequence located in Supplementary Table 5), 10 µM cGAMP, or 100 U ml^−1 murine recombinant Ifnb (R&D Systems). dsDNA was transfected using Lipofectamine LTX. 5′ppp-HP20 RNA was transfected using Lipofectamine 2000. Cells were harvested 24 h post-transfection, washed with PBS, and lysed in 1× Luciferase Cell Lysis Buffer (Pierce).
(§2) The minimum numbers of biological and technical replicates for the luciferase assays were two and three, respectively. Analysis of luminescence values were evaluated for outliers (one standard deviation above and below the mean) for each biological replicate, and the resulting means were used to generate graphs in GraphPad Prism (v. 7.0c); where applicable, an unpaired t-test with Welch’s correction was used to compare the results of each individual compound to dsDNA or other stimulant. The experimental variances observed within control samples (untreated or vehicle) and treated samples were similar.

In data set [2] the test system is RAW macrophage cells stimulated with 5′ppp-HP20 RNA, Pam3CSK4, poly(I:C), LPS or recombinant Ifnb. Briefly: Selectivity: RAW macrophages stimulated with non-DNA immunogenic ligands (luciferase reporter or Il-6 qRT-PCR). The data set is classed as cell-based, mouse. Particulars: compound at EC75; 5′ppp-HP20 RNA, Pam3CSK4, poly(I:C), LPS, Ifnb. How it is done:
as §1, §2
The small molecules were used at concentrations representing the EC75 values and were co-stimulated with either 200 ng Pam3CSK4 (Invivogen), 25 µg poly(I:C) or 100 ng lipopolysaccharide (Sigma-Aldrich) at the cell counts and conditions previously described for the cellular luciferase assays. Cells were harvested 24 h post-transfection, washed with PBS, and RNA was extracted using Trizol (Ambion) and chloroform (Sigma-Aldrich). In all, 1–2 µg of total RNA was reverse-transcribed using random hex primers and SuperScript III (Life Technologies) into cDNA. […] The expression of mRNAs […] murine Actb1 and Il-6 were measured (see Supplementary Table 5 for primer sequences used). Target C T values were normalized to Actb1 C T values and used to calculate ΔC T. mRNA expression of target genes were then calculated using the ΔΔC T method (2^ΔΔCT). Expression values were analyzed as described in the method for cellular luciferase assays.
In general terms: In a reporter assay the amount or activity of a reporter protein is the signal.

A further data set concerns RAW 264.7. Description: Cytotoxicity, CellTiter-Glo ATP quantitation at 72 h. The data set is classed as cell-based. The protocol:
Small-molecule compounds were serially diluted to concentrations spanning the range tested in the response curves were added to 6.7 × 10^5 RAW-Blue macrophages plated 16 h prior in 96-well dishes, then harvested 72 h after compound addition. ATP was measured using CellTiter Glo Viability Assay (Promega) using 50 µM Tamoxifen (Sigma) as a positive control for cytotoxicity. Viability values were generated using vehicle (DMSO) or the first dose (RU.521) as 100% and Tamoxifen as 0%. Outliers were removed as described previously.

Data set [3] has as its target cGAS (cyclic GMP-AMP synthase) (mouse, UniProt Q8C6L5 147-507). Briefly: X-ray crystallography, 2.13 A; RU.365 in active site; Co-crystallization; crystallization buffer not in the material; protein stock 20 mM Tris-HCl pH 7.5, 300 mM NaCl, 1 mM DTT. ITC values are for inhibitors, and t. Particulars: protein: recombinant; tags: His6-SUMO removed by ULP1; chain copies: 2; 16 bp plus 1-nt 5' overhang at each end.

Where [4] appears, read: Fig. 1e, four prioritized screening hits, confirmed with independent lots of compound.
Where [5] appears, read: Supplementary Table 2, batch of compounds stored in the screening library.

Read-outs that look alike come from different tables or passages of the source.

T1 sequence (Q8C6L5 whole entry): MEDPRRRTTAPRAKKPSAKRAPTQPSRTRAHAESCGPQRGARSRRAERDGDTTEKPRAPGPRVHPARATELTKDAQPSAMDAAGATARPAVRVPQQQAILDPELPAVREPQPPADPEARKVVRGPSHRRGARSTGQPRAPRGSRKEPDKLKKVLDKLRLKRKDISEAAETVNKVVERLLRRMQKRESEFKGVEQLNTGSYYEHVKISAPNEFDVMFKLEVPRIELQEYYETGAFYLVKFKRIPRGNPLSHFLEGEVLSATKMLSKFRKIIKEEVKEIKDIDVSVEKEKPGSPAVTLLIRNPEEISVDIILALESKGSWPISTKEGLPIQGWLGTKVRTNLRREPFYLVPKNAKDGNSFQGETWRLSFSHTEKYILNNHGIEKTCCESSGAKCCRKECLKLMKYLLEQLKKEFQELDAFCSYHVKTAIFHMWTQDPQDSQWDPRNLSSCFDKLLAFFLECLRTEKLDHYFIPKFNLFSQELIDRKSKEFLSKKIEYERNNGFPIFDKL
Chain of cGAS (cyclic GMP-AMP synthase) (Q8C6L5 147-507): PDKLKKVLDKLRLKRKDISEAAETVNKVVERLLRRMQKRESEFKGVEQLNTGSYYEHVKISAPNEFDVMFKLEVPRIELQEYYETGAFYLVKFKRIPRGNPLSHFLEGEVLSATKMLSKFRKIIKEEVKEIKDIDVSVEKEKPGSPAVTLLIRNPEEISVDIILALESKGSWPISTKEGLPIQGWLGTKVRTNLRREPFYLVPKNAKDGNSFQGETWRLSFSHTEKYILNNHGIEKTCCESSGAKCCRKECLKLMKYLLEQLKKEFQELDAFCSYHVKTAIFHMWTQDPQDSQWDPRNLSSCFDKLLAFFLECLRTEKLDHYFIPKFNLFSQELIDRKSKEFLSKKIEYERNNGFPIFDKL

Usually IC50 stands for the point on the concentration scale where inhibition reaches its midpoint. As usually defined, the inhibition is the change of the read-out against control, counted positive when it falls. `O=C1N=C(N2CCCCC2)SC1=C1C(=O)Nc2ccccc21` [RU100840]: the concentration for half-maximal inhibition (IC50) at mouse cGAS (setting [4]) came to 0.03 µM. Also, the half-inhibitory concentration (IC50) on mouse cGAS (setting [5]) worked out at 0.06 µM. At mouse cGAS (Supplementary Table 2), the inhibition at 12.5 µM was found to be 88%. Also, in the data set with IFNB1-Luc activity, the IFNB1-Luc activity result is “mild activation”. For the same molecule, in the data set with 45-bp dsDNA, the “% intercalation at 30 µM” value is -8.9% and the Polarization is recorded as 269 mP.

On to `O=C(COc1ccc(Cl)c2ccccc12)Nc1ncccc1O` [RU191752], for which the concentration for half-maximal inhibition (IC50) at mouse cGAS (setting [4]) is 0.07 µM; at mouse cGAS (setting [5]), 0.17 µM. Also, the inhibition at 12.5 µM at mouse cGAS (Supplementary Table 2) was found to be 95%. In the data set on IFNB1-Luc activity, the IFNB1-Luc activity result is reported as “mild activation”. The Polarization in the data set with 45-bp dsDNA was 276 mP.

For `OCc1cn(-c2ccccc2Cl)nn1` [RU219771], at mouse cGAS (setting [5]), the half-inhibitory concentration (IC50) was 1.27 µM. For the same molecule, the inhibition at 12.5 µM on mouse cGAS (Supplementary Table 2) stood at 94%. In the data set with 45-bp dsDNA, the “% intercalation at 30 µM” value is -1.3% and the Polarization was determined as 253 mP.

For the molecule `O=C(Nc1ncc([N+](=O)[O-])s1)c1cccs1` [RU187339], the IC50 on mouse cGAS (setting [5]) turned out to be 6.62 µM. For the same molecule, the inhibition at 12.5 µM at mouse cGAS (Supplementary Table 2) was 86%. Besides, in the data set with 45-bp dsDNA, the Polarization worked out at 274 mP.

With `CC(C)OC(=O)C(C#N)=Cc1ccc([N+](=O)[O-])o1` [RU94102], the 50% inhibitory concentration (IC50) on mouse cGAS (setting [5]) was 8.14 µM. For the same molecule, on mouse cGAS (Supplementary Table 2), the inhibition at 12.5 µM came out at 64%. In the data set on 45-bp dsDNA, the “% intercalation at 30 µM” value is on record as -8.1% and the Polarization is on record as 267 mP.

For `CS(=O)(=O)c1ncc2c(n1)c(=O)c(C#N)c1[nH]c3ccccc3c(=O)n12` [RU207488], the IC50 at mouse cGAS (setting [5]) turned out to be 4.68 µM. Further, the inhibition at 12.5 µM on mouse cGAS (Supplementary Table 2) is 67%. Besides, the Polarization in the data set on 45-bp dsDNA is on record as 272 mP.

Consider `CCC1=NN2C(=N)/C(=C/c3cccs3)C(=O)N=C2S1` [RU169248], for which the IC50 on mouse cGAS (setting [5]) was found to be 3.34 µM. Also, the inhibition at 12.5 µM on mouse cGAS (Supplementary Table 2) came out at 97%. Also, in the data set with 45-bp dsDNA, the “% intercalation at 30 µM” value is recorded as -5.7% and the Polarization was found to be 262 mP.

For the molecule `O=C1NC(=S)SC1=Cc1ccccc1F` [RU116287], on mouse cGAS (setting [5]), the half-inhibitory concentration (IC50) worked out at 6.51 µM. For the same molecule, the inhibition at 12.5 µM on mouse cGAS (Supplementary Table 2) worked out at 63%. Moreover, in the data set with 45-bp dsDNA, the “% intercalation at 30 µM” value was -9.8% and the Polarization is 271 mP.

Consider `Cc1nn(-c2nc3ccccc3s2)c(O)c1C1OC(=O)c2ccccc21` (centres unmarked) [RU281332], for which the IC50 came to 1.79 µM at mouse cGAS (Supplementary Table 3, analogs more potent than RU166365) and 13.6 µM in data set [1]. For the same molecule, the “effect of structural modification on cGAS inhibitory potency” value on mouse cGAS (compared with RU.365) was “did not change the potency”. Moreover, in data set [2], the “suppression of activation by immunogenic stimuli other than dsDNA” value is “inhibited the activation of cells by most of the immunogenic ligands tested”. For the same molecule, the “LD50 over cellular IC50” value with RAW 264.7 is 3.5 fold. Further, the LD50 in the data set on RAW 264.7 (RAW macrophages, 72 h, percent viability, listed as RU.332) is 48 µM.

With `O=C1CN2C(=C1c1ccccc1)NC(=O)c1sc3ccccc3c12` [RU207450], the half-maximal inhibitory concentration (IC50) at mouse cGAS (setting [5]) came to 9.69 µM. Besides, the inhibition at 12.5 µM at mouse cGAS (Supplementary Table 2) was 70%. Moreover, the Polarization with 45-bp dsDNA came to 274 mP.

For `Cc1nnc(NC(=O)c2ccc(S(=O)(=O)Nc3cccc(C(F)(F)F)c3)o2)s1` [RU174368], on mouse cGAS (setting [5]), the half-maximal inhibitory concentration (IC50) is 7.47 µM. For the same molecule, the inhibition at 12.5 µM on mouse cGAS (Supplementary Table 2) turned out to be 76%. In the data set on 45-bp dsDNA, the “% intercalation at 30 µM” value is given as 5.6% and the Polarization amounted to 239 mP.

B1: crystal dsDNA (dsDNA)
DNA 1: AAATTGCCGAAGACGAA
DNA 2: TTTCGTCTTCGGCAATT
As to B1, in data set [3], the binding result is recorded as “binds”.
